Assay results as given in the supplement of paper PMC10011410.

Assays:
U-2 OS [1] = test: AUC of culture confluence over time (live-cell imaging) (AUC (confluence % x time)); higher = more confluent culture (less growth inhibition)
Procedure: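 Live-cell Incucyte imaging of U-2 OS cells in F-12K medium. Compounds were tested mostly at 5, 10 and 20 uM, and cells were imaged every 4 h for up to 60 h. Value is the area under the curve of phase-contrast confluence over time.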

U-2 OS [2] = test: relative cell count vs DMSO (cell painting) (fraction of DMSO control); higher = more cells remaining (less cytotoxic); conditions: 24 h
Procedure: (§1)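 Cell painting in U-2 OS cells (384-well, about 1,500 cells per well), compound exposure 24 h, usually six 2-fold concentrations from 20 to 0.625 uM (some compounds higher or lower). Relative cell count is the cell number per well relative to DMSO wells. Activity score is the Mahalanobis distance of the morphological profile from DMSO control wells. Mean of four technical replicate plates.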

U-2 OS [3] = test: cell painting activity score (Mahalanobis distance from DMSO wells); higher = stronger morphological phenotype; conditions: 24 h
Procedure: as §1

| SMILES | AUC of culture confluence over time (U-2 OS [1]; 40 µM) | AUC of culture confluence over time (U-2 OS [1]; 80 µM) | relative cell count (U-2 OS [2]; 0.625 µM) | relative cell count (U-2 OS [2]; 1.25 µM) | relative cell count (U-2 OS [2]; 2.5 µM) | relative cell count (U-2 OS [2]; 5 µM) | relative cell count (U-2 OS [2]; 10 µM) | relative cell count (U-2 OS [2]; 20 µM) | relative cell count (U-2 OS [2]; 40 µM) | relative cell count (U-2 OS [2]; 80 µM) | cell painting activity score (U-2 OS [3]; 0.625 µM) | cell painting activity score (U-2 OS [3]; 1.25 µM) | cell painting activity score (U-2 OS [3]; 2.5 µM) | cell painting activity score (U-2 OS [3]; 5 µM) | cell painting activity score (U-2 OS [3]; 10 µM) | cell painting activity score (U-2 OS [3]; 20 µM) | cell painting activity score (U-2 OS [3]; 40 µM) | cell painting activity score (U-2 OS [3]; 80 µM) | AUC of culture confluence over time (U-2 OS [1]; 5 µM) | AUC of culture confluence over time (U-2 OS [1]; 10 µM) | AUC of culture confluence over time (U-2 OS [1]; 20 µM) |
| --- | --- | --- | --- | --- | --- | --- | --- | --- | --- | --- | --- | --- | --- | --- | --- | --- | --- | --- | --- | --- | --- |
| ClC1=CC=C(C2=CSC(N/N=C3CCCC/3)=N2)C=C1 | 39.7 | 41.8 | 1.01 | 1.04 | 0.973 | 1 | 0.97 | 0.882 | 0.758 | 0.766 | 3.41 | 3.02 | 4.44 | 4.27 | 4.6 | 7.83 | 10 | 11 | – | – | – |
| Cc1csc(=NC2CCCCC2)n1/N=C/c1ccc(O)c(O)c1O | – | – | 1.01 | 1.01 | 0.985 | 1 | 1.02 | 0.405 | – | – | 6.78 | 7.67 | 6 | 5.67 | 5.75 | 7.13 | – | – | 49.7 | 53.9 | 40.5 |
| Nc1ccn([C@@H]2O[C@H](CO)[C@@H](O)C2(F)F)c(=O)n1 | – | – | 0.601 | 0.571 | 0.574 | 0.581 | 0.624 | 0.589 | – | – | 13.7 | 14 | 14.9 | 15.2 | 15.4 | 14.3 | – | – | 29.2 | 31.9 | 28.7 |
| C=C(C)[C@H]1Cc2c(ccc3c2O[C@@H]2COc4cc(OC)c(OC)cc4[C@@H]2C3=O)O1 | – | – | 0.719 | 0.643 | 0.485 | 0.349 | 0.311 | 0.332 | – | – | 10.4 | 11.4 | 15.6 | 15.6 | 15.4 | 15.4 | – | – | 15 | 17.9 | 21.1 |
| Cc1nc(Nc2ncc(C(=O)Nc3c(C)cccc3Cl)s2)cc(N2CCN(CCO)CC2)n1 | – | – | 0.973 | 0.883 | 0.89 | 0.894 | 0.806 | 0.839 | – | – | 11.4 | 12.6 | 12.3 | 12.2 | 13.1 | 12.8 | – | – | 32.5 | 29 | 22.6 |
| CC(C)(N=NC(C)(C)C(=N)N)C(=N)N.Cl.Cl | – | – | 1.01 | 0.966 | 0.949 | 1.01 | 0.975 | 0.977 | – | – | 5.15 | 4.98 | 5.89 | 7.2 | 8.42 | 9.74 | – | – | 49.5 | 48.3 | 46.6 |
| COc1cc(=O)oc(/C=C/C=C/C=C/C(C)=C/[C@]2(C)O[C@H](C)[C@](C)(O)[C@H]2O)c1C | – | – | 0.993 | 0.982 | 0.972 | 0.928 | 0.826 | 0.758 | – | – | 4.29 | 4.47 | 6.44 | 11.5 | 12.8 | 12.1 | – | – | 34.4 | 30.9 | 27.2 |
| CNc1nc(-c2ccccc2)[n+](-c2ccccc2)s1 | – | – | 1 | 1.03 | 0.994 | 0.992 | 0.516 | 0.0974 | – | – | 2.89 | 2.97 | 3.6 | 3.74 | 6.88 | 14.5 | – | – | 36 | 44.4 | 42.5 |
| Cc1[nH]c2ccccc2c1CCNCc1ccc(/C=C/C(=O)NO)cc1 | – | – | 0.494 | 0.472 | 0.445 | 0.466 | 0.474 | 0.419 | – | – | 16.3 | 16 | 15.9 | 15.3 | 13.8 | 16.2 | – | – | 16.7 | 19.5 | 21 |
| CC[C@H](C)[C@@H]1NC(=O)CNC(=O)[C@@H]2Cc3c([nH]c4cc(O)ccc34)S(=O)C[C@H](NC(=O)CNC1=O)C(=O)N[C@@H](CC(=O)O)C(=O)N1C[C@H](O)C[C@H]1C(=O)N[C@@H]([C@@H](C)[C@@H](O)CO)C(=O)N2 (stereo partly drawn) | – | – | 0.979 | 0.941 | 0.975 | 0.992 | 0.958 | 0.862 | – | – | 5.47 | 4.77 | 6.25 | 4.42 | 11.2 | 29.1 | – | – | 26.4 | 24.6 | 16.3 |
| CC(C)(C)C(=O)OCOc1cccc2ccccc12 | – | – | 1.01 | 0.983 | 0.997 | 0.97 | 0.974 | 1.01 | – | – | 4.69 | 4.3 | 6.34 | 5.83 | 8.37 | 7.3 | – | – | 45.5 | 44.2 | 46.3 |
| O=C(c1ccc(/C=C/c2n[nH]c3ccccc23)cc1)N1CCNCC1 | – | – | 1.02 | 0.914 | 0.649 | 0.572 | 0.532 | 0.526 | – | – | 9.05 | 12 | 17.9 | 19.2 | 18.8 | 18.8 | – | – | 28.9 | 32.6 | 26.8 |
| Nc1c[n+](N2CCOCC2)no1.[Cl-] | – | – | 0.896 | 0.814 | 0.739 | 0.578 | 0.503 | 0.489 | – | – | 6.05 | 6.1 | 9.31 | 10.9 | 12.9 | 15.2 | – | – | 49.4 | 49.9 | 48.7 |
| Nc1ncn([C@H]2C[C@H](O)[C@@H](CO)O2)c(=O)n1 | – | – | 0.973 | 0.985 | 0.966 | 0.935 | 0.915 | 0.918 | – | – | 6.05 | 6.95 | 6.26 | 6.61 | 5.82 | 5.8 | – | – | 45.9 | 35.4 | 37.9 |
| O=C(O)C1=CC(=C(c2ccc(O)c(C(=O)O)c2)c2ccc(O)c(C(=O)O)c2)C=CC1=O | – | – | 0.992 | 0.98 | 0.986 | 0.968 | 0.965 | 0.954 | – | – | 3.58 | 3.35 | 3.92 | 4.33 | 5.68 | 5.78 | – | – | 54.3 | 48.2 | 54 |
| O=c1c(O)c(-c2ccc(O)c(O)c2)oc2cc(O)ccc12 | – | – | 0.969 | 0.938 | 0.943 | 0.939 | 0.932 | 0.945 | – | – | 5.44 | 5.04 | 4.93 | 4.23 | 4.83 | 7.46 | – | – | 52.8 | 52 | 47.7 |
| COc1cc([C@@H]2c3cc4c(cc3[C@H](O)[C@H]3COC(=O)[C@H]23)OCO4)cc(OC)c1OC | – | – | 0.209 | 0.195 | 0.195 | 0.199 | 0.187 | 0.179 | – | – | 23.6 | 24.1 | 23.9 | 21 | 21 | 22 | – | – | 15.2 | 15.6 | 20.8 |
| CN1CCN(CCOc2cc(OC3CCOCC3)c3c(Nc4c(Cl)ccc5c4OCO5)ncnc3c2)CC1 | – | – | 0.997 | 0.953 | 0.993 | 0.997 | 0.991 | 0.933 | – | – | 8.87 | 8.9 | 9.68 | 9.8 | 10.5 | 11.3 | – | – | 39.5 | 33.5 | 34.5 |
| COC1=C2C[C@@H](C)C[C@H](OC)[C@H](O)[C@@H](C)/C=C(\C)[C@H](OC(N)=O)[C@@H](OC)/C=C\C=C(/C)C(=O)NC(=CC1=O)C2=O | – | – | 0.954 | 0.911 | 0.867 | 0.759 | 0.663 | 0.619 | – | – | 8.75 | 12.7 | 13 | 14 | 13.3 | 14.5 | – | – | 20.3 | 18.8 | 20.8 |
| O=C(O[C@@H]1O[C@@H]2COC(=O)c3cc(O)c(O)c(O)c3-c3c(cc(O)c(O)c3O)C(=O)O[C@H]([C@H]1O)[C@@H]2O)c1cc(O)c(O)c(O)c1 | – | – | 1.02 | 1.04 | 1.01 | 1 | 0.979 | 0.978 | – | – | 4.19 | 3.86 | 4.06 | 3.55 | 4.28 | 4.5 | – | – | 48.7 | 46.2 | 43.4 |
